Measurements taken from patent publication US6372690B1 (McGill University, priority 1998, dated 2002).
“Also recorded” adds a separate entry of the source.

Columns and labels:
[1] = test system: ragweed; assay: Example 3: assay with other non-ionic surfactants, ragweed plots in waste area situation; format: in vivo
Experimental: This experiment was conducted to test another solution containing another non-ionic surfactant. The experiment was conducted on plots behind a beef barn complex, on ragweed of 6 to 10 inches in height, fully flowered, in a very hard and gravely soil, such as in a waste area situation. The experiment was conducted as a completely randomized design (CRD) with three replicates.
Each plot has a surface of one (1) m^2. The sprayer used was a small compressed air sprayer with 210 kPa pressure and a T-Jet™ 8002 nozzle. The plots were sprayed Sep. 3, 1996 at 10:00 a.m. under a bright sunshine and a temperature of 28° C. In all instances, the efficacy of the solution was evaluated 20-30 minutes, 2-4 hrs, 16-24 hrs, and 2-5 days after spraying. The efficacy of the solution was determined based on level of plant deterioration.
In this experiment, 14 different treatments were applied to the different plots (with three replicates/treatment).
Once it had been determined that a surfactant could possibly increase efficacy of the NaCl at the same time as reducing the spray volume needed, another non-ionic surfactant, namely Citowett™, was introduced into the trials. All surfactants were applied at the rates usually recommended in the Ontario Guide to Chemical Weed Control (OMAFRA, 1997).

[2] = test system: ragweed; assay: General conclusions on ragweed control from the experiments; format: in vivo
[3] = test system: ragweed; assay: Example 2: determination of an adequate volume sprayed, ragweed plots sprayed at 1000 l/ha; format: in vivo
Experimental: This experiment was conducted to determine if increasing the spray volume to the point where the plants were completely covered to the run-off stage would improve efficacy.
This experiment was conducted on plots within a fencerow of an agricultural field where ragweed plants had attained 12 to 20 inches in height, and were in full flower. The experiment was conducted as a completely randomized design (CRD) with three replicates.
Each plot has a surface of one (1) m^2. The sprayer used was a Hardi™ pack sprayer with Hardi™ nozzle and 200-220 kPa of pressure. The plots were sprayed Aug. 29, 1996 at 13:30 under a bright sunshine and a temperature of 29° C. The spray volume used was 1000 l/ha or 100 ml/m^2 plot.
In all instances, the efficacy of the solution was evaluated 30 minutes, 2-4 hrs, 16-24 hrs, and 2-5 days after spraying. The efficacy of the solution was determined based on level of plant deterioration.
In this experiment, 6 different treatments (having three replicates each) were subjected to the different plots.

[4] = test system: ragweed; assay: Example 4: concentration of salt with or without surfactants, tall ragweed in cultivated field; format: in vivo; details: tall ragweed (40-60 inches)
Experimental: This experiment was conducted on plot of tall ragweed (40-60 inches), fully flowered, in a cultivated field situation. The experiment was conducted as a completely randomized design (CRD) with three replicates.
(§1) Each plot has a surface of four (4) m^2. The sprayer used was a Hardi™ pack sprayer with 200-220 kPa pressure and T-Jet™ 8002 nozzle. The plots were sprayed Sep. 6, 1996 at 09:00 a.m. under a bright sunshine and a temperature of 26° C. In all instances, the efficacy of the solution was evaluated 30 minutes, 2-4 hrs, 16-24 hrs, and 2-5 days after spraying. The efficacy of the solution was determined based on level of plant deterioration.
(§2) In this experiment, 8 different treatments were applied to the different plots (with three replicates/treatment).

[5] = test system: ragweed; assay: Example 5: optimization of salt concentration with or without surfactants, cut ragweed in roadside situation; format: in vivo
Experimental: This experiment was conducted on plots having ragweed 4 to 6 inches tall, in flower, and which had been cut at least once, in a roadside situation. The experiment was conducted as a randomized complete block design (RCBD) with three replicates.
as §1, with “small compressed air” for “Hardi™ pack”, “210” for “200-220”, “13:30,” for “09:00 a.m.”, “29°” for “26°”
as §2
Only the 8% and 12% rates were considered in this experiment because it had been observed that there was no efficacy or economic benefit to using the 16% or 20% rates of NaCl. Both NaCl concentrations were applied alone or with each of the three surfactants.

[6] = test system: ragweed; assay: Spraying of ragweed plants as described in the description and FIGS. 1-3; format: in vivo; details: 12% NaCl solution
[7] = test system: broad-leaved plantain; assay: Selective control of broad-leaved plantain in turf (FIG. 4); format: in vivo; details: 12% NaCl solution; 24 hours following the application
[8] = test system: all types of vegetation; details: Frear, Chemistry of Pesticides 3rd ed. p. 401, 1955; cited from earlier work

| Structure (SMILES) | efficacy compared with the NaCl solutions ([1]; 12% KNO3) | suitability as alternative to NaCl ([2]; KNO3 at the 12% rate) | activity at damaging the ragweed ([3]; 8% NaCl) | overall efficacy ([3]; 12% NaCl) | difference in effect between 12% and 16% solution ([3]; 16% NaCl versus 12% NaCl, any time except 30 minutes after application) | speed of wilting ([3]; 16% NaCl, 30 minutes after application) | reaction of ragweed to the sprays ([3]; NaCl at all three concentrations (8, 12, 16% W/V), 30 minutes after spraying) | efficacy compared with the 12% solution ([1]; 8% NaCl alone) | overall damage to the ragweed compared with the 12% solution ([1]; 16% NaCl) | overall damage to the ragweed compared with the 12% solution ([1]; 20% NaCl) | control ([4]; 8% NaCl) | efficiency compared with higher concentrations ([4]; 12% NaCl without surfactant) | control of ragweed ([5]; 8% NaCl alone) | effect 30 minutes after application ([5]; 12% NaCl alone, 30 minutes) | effect 2 days after spraying ([5]; 12% NaCl alone, 2 days) | effect on ragweed plants (FIGS. 2 and 3) ([6]; 24 hours following spraying) | effect on ragweed plant (FIG. 1) ([6]; within 6 hours of applying) | control of broad-leaved plantain in turf (FIG. 4) [7] | ragweed control (general conclusion) ([2]; salt solutions, especially NaCl solutions) | herbicidal effect and selectivity [8] |
| --- | --- | --- | --- | --- | --- | --- | --- | --- | --- | --- | --- | --- | --- | --- | --- | --- | --- | --- | --- | --- |
| O=[N+]([O-])[O-].[K+] [KNO3, potassium nitrate, reference compound] | not as effective as any of the NaCl solutions | not a viable alternative to NaCl |  |  |  |  |  |  |  |  |  |  |  |  |  |  |  |  |  |  |
| [Cl-].[Na+] [NaCl, sodium chloride] |  |  | there was activity but it did not seem to be as effective as the 12% concentration | sufficient | little difference | appeared to have wilted more quickly than those treated with 12% | the inflorescences were drooping | not as effective as the 12% solution | did not visibly improve overall damage to the ragweed | did not visibly improve overall damage to the ragweed | slightly lower | as efficient as 16% or 20% | inferior control of ragweed compared with the 12% solution | drooping | complete necrosis | drooping of ragweed staminate flowers and desiccation of leaves; also recorded: desiccated | curling and wilting | selective control | effective at ragweed control | will kill all types of vegetation, without any selection |
